For 36 compounds, EC50 results are on record in US11001564B2, “Substituted chromane-8-carboxamide compounds and analogues thereof, and methods using same” (priority 2016, dated 2021).

The structures appear in SMILES notation. Where a name gives a salt, the structure may show the parent alone.

The first test deals with HBV rcDNA in HepDE19 cells. The test is described as follows: HepDE19 assay with bDNA quantitation of HBV rcDNA. As to conditions: HepDE19 cells, 7 day incubation, rcDNA by Quantigene 2.0 bDNA assay; read-out: DE-19 bDNA EC50. It is filed as cell-based, hepatitis B virus (HBV). In a few lines:
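HepG2-derived HepDE19 cells, switched to Tet-free medium, were exposed 7 days at 37 °C to compound (8-point ½-log series from 25 μM, 0.5% DMSO). HBV rcDNA measured by bDNA assay with HBV-specific probes; EC50/EC90 by 4-parameter fit. CC50 from CellTiter-Glo ATP on replicate plates after 4 days.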
As for `CN1CCC(NC(=O)OCc2ccccn2)c2cccc(C(=O)Nc3ccc(F)c(F)c3)c21` (single isomer, unassigned) [Compound 180, Pyridin-2-ylmethyl (8-((3,4-difluorophenyl)carbamoyl)-1-methyl-1,2,3,4-tetrahydroquinolin-4-yl)carbamate], the EC50 stood at 15 µM.

The same test, now with this note: Hepatitis B virus, HepDE19, 168 h, HepDE19 cells, 7 day incubation, rcDNA by Quantigene 2.0 bDNA assay; read-out: DE-19 bDNA EC50.
With `O=C(Nc1ccc(F)c(F)c1)c1cccc2c1OCCC2O` (stereo not drawn) [Compound 3, N-(3,4-difluorophenyl)-4-hydroxychromane-8-carboxamide], the EC50 stood at 3.4 µM.
In the case of `O=C(Nc1ccc(F)c(F)c1)c1cccc2c1OCC[C@H]2NC(=O)N1CCCC1` [Compound 24, (R)-N-(8-((3,4-difluorophenyl)carbamoyl)chroman-4-yl)pyrrolidine-1-carboxamide], the EC50 came to 24 µM.
Take `C[C@@H](OC1CCOc2c(C(=O)Nc3ccc(F)c(F)c3)cccc21)c1ccncc1` (stereo partly drawn) [Compound 96, N-(3,4-difluorophenyl)-4-((R)-1-(pyridin-4-yl)ethoxy)chromane-8-carboxamide]: the 50% effective concentration (EC50) came out at 15 µM.
On to `O=C(N[C@H]1CCOc2c1ccc(F)c2C(=O)Nc1ccc(F)c(F)c1)OCc1ccccn1` [Compound 59, (S)-Pyridin-2-ylmethyl (8-((3,4-difluorophenyl)carbamoyl)-7-fluorochroman-4-yl)carbamate], for which the EC50 worked out at 5.3 µM.
The same measure, in the same setting: as for `O=C(N[C@H]1CCOc2c(C(=O)Nc3ccc(F)c(F)c3)cccc21)OCC1CCNCC1` [Compound 107, piperidin-4-ylmethyl (S)-(8-((3,4-difluorophenyl)carbamoyl)chroman-4-yl)carbamate], the figure is 21 µM.
As to `O=C(Nc1ccc(F)c(F)c1)c1ccc(F)c2c1OCC[C@@H]2Nc1ncccn1` [Compound 89, (S)—N-(3,4-Difluorophenyl)-5-fluoro-4-(pyrimidin-2-ylamino)chromane-8-carboxamide], the EC50 came out at 1.1 µM.
On the same count and under the same terms, then `Cc1cccc(COC(=O)N[C@H]2CCOc3c(C(=O)Nc4ccc(F)c(F)c4)cccc32)n1` [Compound 53, (6-Methylpyridin-2-yl)methyl (S)-(8-((3,4-difluorophenyl)carbamoyl)chroman-4-yl)carbamate], with 4.4 µM; and `CCC(=O)N[C@H]1CCOc2c(C(=O)Nc3ccc(F)c(F)c3)cccc21` [Compound 10, N-(3,4-Difluorophenyl)-4-propionamidochromane-8-carboxamide], with 5.8 µM; and `O=C(N[C@@H]1CCOc2c(C(=O)Nc3ccc(F)c(F)c3)cccc21)OCc1ccncc1` [Compound 30, pyridin-4-ylmethyl (R)-(8-((3,4-difluorophenyl)carbamoyl)chroman-4-yl)carbamate], with 11 µM.
Regarding `NC(=O)NC1CCOc2c(C(=O)Nc3ccc(F)c(F)c3)cccc21` (stereo not drawn) [Compound 34, N-(3,4-Difluorophenyl)-4-ureidochromane-8-carboxamide], the EC50 was determined as 4.7 µM.
Still for that read-out and setting: then `CC[C@@H](C)OC1CCOc2c(C(=O)Nc3ccc(F)c(F)c3)cccc21` (stereo partly drawn) [Compound 14, 4-((R)-sec-butoxy)-N-(3,4-difluorophenyl)chromane-8-carboxamide], with 6 µM; and `Cn1nccc1CN[C@H]1CCOc2c(C(=O)Nc3ccc(F)c(F)c3)cccc21` [Compound 101], with 21 µM.
The same measure, in the same setting: then `O=C(N[C@H]1CCOc2c(C(=O)Nc3ccc(F)c(Cl)c3)ccc(F)c21)OCC(=O)N1CCCC1` [Compound 160, 2-Oxo-2-(pyrrolidin-1-yl)ethyl (S)-(8-((3-chloro-4-fluorophenyl)carbamoyl)-5-fluorochroman-4-yl)carbamate], with 0.42 µM; and `O=C(Nc1ccc(F)c(F)c1)c1cccc2c1OCC[C@@H]2O` [Compound 5, (S)-N-(3,4-difluorophenyl)-4-hydroxychromane-8-carboxamide], with 3.9 µM; and `O=C(Nc1ccc(F)c(Cl)c1)c1ccc(F)c2c1OCCC2=O` [Compound 79, N-(3-chloro-4-fluorophenyl)-5-fluoro-4-oxochromane-8-carboxamide], with 5.3 µM.
Same read-out and setting: then `CN1CCC(COC(=O)N[C@H]2CCOc3c(C(=O)Nc4ccc(F)c(F)c4)cccc32)CC1` [Compound 95, (1-methylpiperidin-4-yl)methyl (S)-(8-((3,4-difluorophenyl)carbamoyl)chroman-4-yl)carbamate], with 24 µM; and `O=C(N[C@H]1CCOc2c(C(=O)Nc3ccc(F)c(F)c3)cccc21)OCc1ccncn1` [Compound 66, Pyrimidin-4-ylmethyl (S)-(8-((3,4-difluorophenyl)carbamoyl)chroman-4-yl)carbamate], with 3.5 µM.
Consider `Cc1cc(NC(=O)c2ccc(F)c3c2OCC[C@@H]3NC(=O)OCCN2CCCC2=O)ccc1F` [Compound 143, 2-(2-Oxopyrrolidin-1-yl)ethyl (S)-(5-fluoro-8-((4-fluoro-3-methylphenyl)carbamoyl)chroman-4-yl)carbamate], for which the EC50 amounted to 1.2 µM.
On the same count and under the same terms, as for `O=C(Nc1ccc(F)c(F)c1)c1cccc2c1OCC[C@@H]2Nc1ccncn1` [Compound 67, (S)—N-(3,4-Difluorophenyl)-4-(pyrimidin-4-ylamino)chromane-8-carboxamide], the figure is 3.6 µM; as for `CNC(=O)N[C@H]1CCOc2c1ccc(F)c2C(=O)Nc1ccc(F)c(F)c1` [Compound 48, (S)-N-(3,4-difluorophenyl)-7-fluoro-4-(3-methylureido) chromane-8-carboxamide], 6.7 µM; as for `Cc1cc(NC(=O)c2ccc(F)c3c2OCC[C@@H]3NC(=O)OC[C@H]2CCCC(=O)N2)ccc1F` [Compound 142, ((R)-6-Oxopiperidin-2-yl)methyl ((S)-5-fluoro-8-((4-fluoro-3-methylphenyl)carbamoyl)chroman-4-yl)carbamate], 0.73 µM.
Still for that read-out and setting: then `O=C(N[C@H]1CCSc2c(C(=O)Nc3ccc(F)c(Cl)c3)ccc(F)c21)OCc1ccccn1` [Compound 172], with 2.9 µM; and `O=C(Nc1ccc(F)c(F)c1)c1cccc2c1OCC[C@@H]2Nc1ncccn1` [Compound 42, (S)-N-(3,4-difluorophenyl)-4-(pyrimidin-2-ylamino) chromane-8-carboxamide], with 3.4 µM.

The same test, now with this note: Hepatitis B virus, HepDE19, 168 h, read-out: DE-19 bDNA EC50, HepDE19 cells, 7 day incubation, rcDNA by Quantigene 2.0 bDNA assay.
As to `COC(=O)NC1CCN(C)c2c(C(=O)Nc3ccc(F)c(F)c3)cccc21` (single isomer, unassigned) [Compound 177, Methyl (8-((3,4-difluorophenyl)carbamoyl)-1-methyl-1,2,3,4-tetrahydroquinolin-4-yl)carbamate], the EC50 is 2.3 µM.
Turning to `CN(C)S(=O)(=O)N1CCC(COC(=O)N[C@H]2CCOc3c(C(=O)Nc4ccc(F)c(Cl)c4)ccc(F)c32)CC1` [Compound 163, (1-(N,N-dimethylsulfamoyl)piperidin-4-yl)methyl (S)-(8-((3-chloro-4-fluorophenyl)carbamoyl)-5-fluorochroman-4-yl)carbamate], the EC50 stood at 1 µM.
On to `COC(=O)N[C@H]1CCOc2c(C(=O)Nc3ccc(F)c(Cl)c3)ccc(F)c21` [Compound 91, Methyl (S)-(8-((3-chloro-4-fluorophenyl)carbamoyl)-5-fluorochroman-4-yl)carbamate], for which the EC50 came to 0.2 µM.
Same read-out and setting: then `O=C(N[C@H]1CCCc2c(C(=O)Nc3ccc(F)c(F)c3)cccc21)OCc1ccccn1` [Compound 186, Pyridin-2-ylmethyl (S)-(5-((3,4-difluorophenyl)carbamoyl)-1,2,3,4-tetrahydronaphthalen-1-yl)carbamate], with 5.6 µM.
For `CC(C)OC(=O)N[C@H]1CCOc2c(C(=O)Nc3ccc(F)c(F)c3)cccc21` [Compound 20, Isopropyl (8-((3,4-difluorophenyl)carbamoyl)chroman-4-yl)carbamate], the EC50 came out at 14 µM.
Still for that read-out and setting: then `O=C(N[C@@H]1CCSc2c(C(=O)Nc3ccc(F)c(F)c3)ccc(F)c21)OCc1ccccn1` [Compound 170, Pyridin-2-ylmethyl (R)-(8-((3,4-difluorophenyl)carbamoyl)-5-fluorothiochroman-4-yl)carbamate hydrochloride], with 21 µM; and `C[C@H](OC(=O)N[C@H]1CCOc2c(C(=O)Nc3ccc(F)c(F)c3)cccc21)c1ccccn1` [Compound 61, (S)-1-(Pyridin-2-yl)ethyl ((S)-8-((3,4-difluorophenyl)carbamoyl)chroman-4-yl)carbamate hydrochloride], with 4 µM.
Turning to `CNC(=O)N[C@H]1CCOc2c(C(=O)Nc3ccc(F)c(Cl)c3)ccc(F)c21` [Compound 104, (S)—N-(3-Chloro-4-fluorophenyl)-5-fluoro-4-(3-methylureido)chromane-8-carboxamide], the EC50 stood at 0.4 µM.
The same measure, in the same setting: as for `CNC(=O)N[C@H]1CCOc2c(C(=O)Nc3ccc(F)c(F)c3)ccc(Cl)c21` [Compound 126, (S)-5-chloro-N-(3,4-difluorophenyl)-4-(3-methylureido)chromane-8-carboxamide], the figure is 0.74 µM; as for `CCOC(=O)N[C@H]1CCOc2c(C(=O)Nc3ccc(F)c(F)c3)cccc21` [Compound 18, Ethyl (8-((3,4-difluorophenyl)carbamoyl)chroman-4-yl)carbamate], 6.6 µM; as for `COc1ccc(COC(=O)N[C@H]2CCOc3c(C(=O)Nc4ccc(F)c(F)c4)cccc32)nc1` [Compound 102, (5-Methoxypyridin-2-yl)methyl (S)-(8-((3,4-difluorophenyl)carbamoyl)chroman-4-yl)carbamate hydrochloride], 2.5 µM.

Still in this test, the particulars now being: read-out: DE-19 bDNA EC50; HepDE19 cells, 7 day incubation, rcDNA by Quantigene 2.0 bDNA assay.
Take `CC(=O)N1CCC(COC(=O)N[C@H]2CCOc3c(C(=O)Nc4ccc(F)c(F)c4)cccc32)C1` (single isomer, unassigned) [Compound 145]: the EC50 is 7 µM.

By EC50 is commonly meant the midpoint of the concentration-response curve.
